# According to patent US8106186B2, “Transition metal phosphine complex, method for producing same, and anticancer agent containing transition metal phospine complex” (Nippon Chemical Industrial Co., Ltd., priority 2005, dated 2012):
# How the values were obtained:
# [1] = tested on: Human acute myelocytic leukemia cells HL-60; assay: Evaluation of anticancer property 1: MTT viable cell assay (modified Mosmann method); format: cell-based; conditions: HL-60 cells, 24 hours culture, average of assays
# Method: Human acute myelocytic leukemia cells cancer cells HL-60 was used as cancer cells. The cells were cultured in Rosewell Park Memorial Institute medium (RPMI 1640) supplemented with 10% fetal bovine serum, 1% antibiotic, and an antifungal agent in an atmosphere of 5% carbon dioxide in a moist incubator at 37° C.
# Cells were washed with PBS. After the number of cells was determined, a suspension (1×10^6 cells/mL) was prepared with the same medium. The suspension was seeded in a sterile 96-well microplate at a density of 50,000 cells/well.
# The wells were further cultured in the incubator for 24 hours.
# The number of viable cells was determined by a modified Mosmann method (T. Mosmann, J. Immunnol. Method (1983)65, 55-63). […] The wells were cultured for another 3 hours under the same conditions. Formazan crystals formed by the enzyme activity of mitochondria in the cells were dissolved in 0.04 mol/HCl/isopropyl alcohol. The absorbance of each well was measured at 595 nm with a microplate reader (Bio-Rad 550). To remove the background, the absorbance of each well was measured at 630 nm. The absorbance at 630 nm was subtracted from the actual measured value. This is determined to be the number of viable cells.
# [2] = tested on: female Sprauge-Dawley SPF rats (CrJ:CD (SD)); assay: Toxicity test by single oral administration to rats; format: in vivo, rat; conditions: for LD50: rats, single oral dose in corn oil, observed 14 days, from survival rate
# From the text: After female Sprauge-Dawley SPF rats (CrJ:CD (SD)) were quarantined and acclimated for about a week, healthy 8-week-old rats were selected in groups of five rats.
# [3] = tested on: HCS-4 (cells derived from human tongue cancer); assay: Evaluation of anticancer property 2: MTT assay, tongue cancer cells; format: cell-based; conditions: HCS-4, RPMI 1640+10% FBS, assayed as in Evaluation 1; read-out: IC50, Cell derived from human tongue cancer
# Method: (§1) The number of viable cells was determined by a modified Mosmann method (T. Mosmann, J. Immunnol. Method (1983)65, 55-63). That is, a solution of a tetrazolium salt (3,[4,5-dimethylthiazole-2-yl]-2,5-diphenyltetrazolium bromide, MTT) was added thereto. The wells were cultured for another 3 hours under the same conditions. Formazan crystals formed by the enzyme activity of mitochondria in the cells were dissolved in 0.04 mol/HCl/isopropyl alcohol. The absorbance of each well was measured at 595 nm with a microplate reader (Bio-Rad 550). To remove the background, the absorbance of each well was measured at 630 nm. The absorbance at 630 nm was subtracted from the actual measured value. This is determined to be the number of viable cells. […] For the values shown in Table 3, each of Compounds 1 to 3 was assayed three times, and the average value was shown.
# (§2) Compounds (2) and (3) obtained in Examples 2 and 3 were assayed as in Evaluation 1 with HCS-4 (cells derived from human tongue cancer, medium: RPMI 1640+10% FBS), COLO205 (cells derived from human colon, medium: RPMI-1640+10% FBS), and SH-10-TC (cells derived from human gastric cancer, medium: RPMI-1640+10% FBS).
# [4] = tested on: COLO205 (cells derived from human colon); assay: Evaluation of anticancer property 2: MTT assay, colon cells; format: cell-based; conditions: COLO205, RPMI-1640+10% FBS, assayed as in Evaluation 1; read-out: IC50, Cell derived from human colon
# Method: as §1, §2
# [5] = tested on: SH-10-TC (cells derived from human gastric cancer); assay: Evaluation of anticancer property 2: MTT assay, gastric cancer cells; format: cell-based; conditions: RPMI-1640+10% FBS, assayed as in Evaluation 1, read-out: IC50, Cell derived from human gastrict cancer
# Method: as §1, §2
Substance,IC50 [1],"Death of rats, 100 mg/kg group ([2]; single oral dose 100 mg/kg, five rats, death at 5 days after administration)","Death of rats, 300 mg/kg group ([2]; single oral dose 300 mg/kg, five rats, deaths by day 2)","Death of rats, 20 and 50 mg/kg groups ([2]; single oral dose 20 and 50 mg/kg, five rats per group)",LD50 [2],IC50 [3],IC50 [4],IC50 [5]
"bis[1,2-bis(phenyl(2-pyridyl)phosphino)ethane]gold(I) chloride [Compound (5), reference compound]",3560 nM,one rat died,three rats died,no death was observed,–,–,–,–
"bis(rac-1,2-bis(tert-butyl(2-pyridyl)phosphino)ethane)gold(I) chloride [Compound (1)]",4510 nM,–,–,–,300 mg/kg or more,–,–,–
"bis(meso-1,2-bis(tert-butyl(2-pyridyl)phosphino)ethane)gold(I) chloride [Compound (2)]",5130 nM,–,–,–,300 mg/kg or more,1400 nM,2200 nM,1200 nM
"bis((R,R)-1,2-bis(tert-butyl(2-pyridyl)phosphino)ethane)gold(I) chloride [Compound (3)]",3580 nM,–,–,–,300 mg/kg or more,3500 nM,1500 nM,900 nM
